According to ChEMBL document CHEMBL4028834, “Stereoselective synthesis of enantiopure N-substituted pyrrolidin-2,5-dione derivatives by 1,3-dipolar cycloaddition and assessment of their in vitro antioxidant and antibacterial activities” (Bioorg Med Chem Lett, 2017):
≈ marks a conversion by molar mass, not a printed value.

Experiments:
Assay type in all cases: functional
[1] = Antioxidant activity assessed as DPPH free radical scavenging activity incubated for 20 mins in dark
[2] = Antioxidant activity assessed as DPPH free radical scavenging activity at 2 mg/ml incubated for 20 mins in dark (reference value: 1 to 9%)
[3] = Antioxidant activity assessed as DPPH free radical scavenging activity at 1 mg/ml incubated for 20 mins in dark (reference value: 1 to 9%)
[4] = Antioxidant activity assessed as DPPH free radical scavenging activity at 3 mg/ml incubated for 20 mins in dark (reference value: 1 to 9%)
[5] = Antioxidant activity assessed as reduction in beta-carotene/linoleic acid bleaching activity at 3 mg/ml after 2 hrs by spectrophotometric method (reference value: 1 to 8%); set-up: scale not given: the % may be the effect or the level left
[6] = Antioxidant activity assessed as ABTS radical scavenging activity incubated for 2 hrs in dark by spectrophotometric analysis
[7] = Antioxidant activity assessed as reduction in beta-carotene/linoleic acid bleaching activity after 2 hrs by spectrophotometric method
[8] = Antioxidant activity assessed as reduction in beta-carotene/linoleic acid bleaching activity at 1 mg/ml after 2 hrs by spectrophotometric method (reference value: 1 to 8%); set-up: scale not given: the % may be the effect or the level left
[9] = Antioxidant activity assessed as ABTS radical scavenging activity at 0.5 mg/ml incubated for 2 hrs in dark by spectrophotometric analysis (reference value: 1 to 9 %)
[10] = Antioxidant activity assessed as ABTS radical scavenging activity at 3 mg/ml incubated for 2 hrs in dark by spectrophotometric analysis (reference value: 1 to 9%)
[11] = Antioxidant activity assessed as DPPH free radical scavenging activity at 0.5 mg/ml incubated for 20 mins in dark (reference value: 1 to 9 %)
[12] = Antioxidant activity assessed as ABTS radical scavenging activity at 2.5 mg/ml incubated for 2 hrs in dark by spectrophotometric analysis (reference value: 1 to 9%)
[13] = Antioxidant activity assessed as DPPH free radical scavenging activity at 2.5 mg/ml incubated for 20 mins in dark (reference value: 1 to 9%)
[14] = Antioxidant activity assessed as ABTS radical scavenging activity at 1 mg/ml incubated for 2 hrs in dark by spectrophotometric analysis (reference value: 1 to 9%)
[15] = Antioxidant activity assessed as ABTS radical scavenging activity at 2 mg/ml incubated for 2 hrs in dark by spectrophotometric analysis (reference value: 1 to 9%)
[16] = Antioxidant activity assessed as reduction in beta-carotene/linoleic acid bleaching activity at 2 mg/ml after 2 hrs by spectrophotometric method (reference value: 1 to 8%); set-up: scale not given: the % may be the effect or the level left
[17] = Antioxidant activity assessed as reduction in beta-carotene/linoleic acid bleaching activity at 2.5 mg/ml after 2 hrs by spectrophotometric method (reference value: 1 to 8%); set-up: scale not given: the % may be the effect or the level left
[18] = Antioxidant activity assessed as reduction in beta-carotene/linoleic acid bleaching activity at 0.5 mg/ml after 2 hrs by spectrophotometric method (reference value: 1 to 8 %); set-up: scale not given: the % may be the effect or the level left

In the case of CC(C)[C@@H]1CC[C@@H](C)C[C@@]12N(C)C(=O)[C@@H]1[C@H]3C(=O)N(c4ccccc4)C(=O)[C@H]3ON12, the Activity [1] was “Dose-dependent effect”, the IC50 [1] was 900 µg/mL (≈ 2.19 mM) and the Activity [2] was 74.2%. For the same compound, the Activity [3] was 54.9%, the Activity [4] was 80.7% and the Activity [5] was 58.9%. The IC50 [6] was 2250 µg/mL (≈ 5.47 mM), the IC50 [7] was 2310 µg/mL (≈ 5.61 mM) and the Activity [8] was 35.4%. It also gave an Activity [9] of 14.7%, an Activity [10] of 73.5% and an Activity [11] of 21.6%. The Activity [12] was 58.6%, the Activity [13] was 76.2% and the Activity [14] was 29.7%. For the same compound, the Activity [15] was 41%, the Activity [16] was 48.2% and the Activity [17] was 53.1%. The Activity [18] was 28.7%.

With CC(C)[C@@H]1CC[C@@H](C)C[C@@]12N(C)C(=O)[C@@H]1[C@H]3C(=O)N(c4ccc5ccccc5c4)C(=O)[C@H]3ON12 the Activity [1] was “Dose-dependent effect”, the IC50 [1] was 2920 µg/mL (≈ 6.33 mM) and the Activity [2] was 35%. It also gave an Activity [3] of 27.6%, an Activity [4] of 50.9% and an Activity [5] of 57.4%. The IC50 [6] was 2520 µg/mL (≈ 5.46 mM), the IC50 [7] was 2680 µg/mL (≈ 5.81 mM) and the Activity [8] was 29.6%. For the same compound, the Activity [9] was 25.4%, the Activity [10] was 60.1% and the Activity [11] was 13.8%. The Activity [12] was 47.9%, the Activity [13] was 39.5% and the Activity [14] was 33.2%. For the same compound, the Activity [15] was 43.6%, the Activity [16] was 36.5% and the Activity [17] was 45.1%. It also gave an Activity [18] of 24.5%.

For CC(C)[C@@H]1CC[C@@H](C)C[C@@]12N(C)C(=O)[C@@H]1[C@H]3C(=O)N(C)C(=O)[C@H]3ON12, the Activity [1] was “Dose-dependent effect”, the IC50 [1] was 1650 µg/mL (≈ 4.72 mM) and the Activity [2] was 53.4%. The Activity [3] was 43.1%, the Activity [4] was 64% and the Activity [5] was 67.5%. For the same compound, the IC50 [6] was 1400 µg/mL (≈ 4.01 mM), the IC50 [7] was 2160 µg/mL (≈ 6.18 mM) and the Activity [8] was 47.7%. It also gave an Activity [9] of 39.2%, an Activity [10] of 75.3% and an Activity [11] of 18.2%. The Activity [12] was 70.3%, the Activity [13] was 55.8% and the Activity [14] was 41.5%. The Activity [15] was 59.9%, the Activity [16] was 49.7% and the Activity [17] was 57.2%. The Activity [18] was 36.5%.

With CC(C)[C@@H]1CC[C@@H](C)C[C@@]12N(C)C(=O)[C@@H]1[C@H]3C(=O)N(c4ccc(Cl)cc4)C(=O)[C@H]3ON12 the Activity [1] was “Dose-dependent effect”, the IC50 [1] was 2150 µg/mL (≈ 4.82 mM) and the Activity [2] was 48.2%. It also gave an Activity [3] of 31.7%, an Activity [4] of 47.2 to 63.9% and an Activity [5] of 73.2%. It also gave an IC50 [6] of 2000 µg/mL (≈ 4.48 mM), an IC50 [7] of 710 µg/mL (≈ 1.59 mM) and an Activity [8] of 53.7%. For the same compound, the Activity [9] was 29.7%, the Activity [10] was 74% and the Activity [11] was 18.1%. The Activity [12] was 60.1%, the Activity [13] was 53.1% and the Activity [14] was 39.9%. The Activity [15] was 49.4%, the Activity [16] was 56.4% and the Activity [17] was 61.3%. It also gave an Activity [18] of 47.5%.
